Measurements reported in patent publication US9981976B2, “Piperidine substituted pyrazolo[1,5-A]pyrimidine derivatives with inhibitory activity on the replication of the respiratory syncytial virus (RSV)” (priority 2014, dated 2018).

Tests used:
HeLa cells = assay: Cytotoxicity in HeLa cells, ATP content (ATPlite kit); conditions: three days incubation, CC50 = 50% concentration for cytotoxicity
Method: Black 384-well clear-bottom microtiter plates (Corning, Amsterdam, The Netherlands) were filled via acoustic drop ejection using the echo liquid handler (Labcyte, Sunnyvale, Calif.). 200 nL of compound stock solutions (100% DMSO) were transferred to the assay plates. 9 serial 4-fold dilutions of compound were made, creating per quadrant the same compound concentration. The assay was initiated by adding 10 μL of culture medium to each well (RPMI medium without phenol red, 10% FBS-heat inactivated, 0.04% gentamycin (50 mg/mL). All addition steps are done by using a multidrop dispenser (Thermo Scientific, Erembodegem, Belgium). Next, rgRSV224 virus (MOI=1) diluted in culture medium was added to the plates. rgRSV224 virus is an engineered virus that includes an additional GFP gene (Hallak L K, Spillmann D, Collins P L, Peeples M E. Glycosaminoglycan sulfation requirements for respiratory syncytial virus infection; Journal of virology (2000), 74(22), 10508-13) and was in-licensed from the NIH (Bethesda, Md., USA). Finally, 20 μL of a HeLa cell suspension (3,000 cells/well) were plated. Medium, virus- and mock-infected controls were included in each test. The wells contain 0.05% DMSO per volume. Cells were incubated at 37° C. in a 5% CO2 atmosphere. Three days post-virus exposure, viral replication was quantified by measuring GFP expression in the cells by an in house developed MSM laser microscope (Tibotec, Beerse, Belgium). The EC50 was defined as the 50% inhibitory concentration for GFP expression. In parallel, compounds were incubated for three days in a set of white 384-well microtiter plates (Corning) and the cytotoxicity of compounds in HeLa cells was determined by measuring the ATP content of the cells using the ATPlite kit (Perkin Elmer, Zaventem, Belgium) according to the manufacturer's instructions. The CC50 was defined as the 50% concentration for cytotoxicity.

rgRSV224 virus = assay: microbe, parasite or virus in culture; format: cell-based, respiratory syncytial virus (RSV); conditions: for EC50: human respiratory syncytial virus, HeLa, 72 h, read-out: RSV HELA pEC50, rgRSV224 virus (MOI=1), HeLa cells, GFP expression three days post-virus exposure (converted)

Compound	SI TOX HELA (HeLa cells)	RSV HELA pEC50 (rgRSV224 virus; rgRSV224 virus (MOI=1), HeLa cells, GFP expression three days post-virus exposure)	EC50 (rgRSV224 virus) [nM]
CS(=O)(=O)Nc1nc(N2CCCC[C@H]2c2cc3nc(N4CCC4)cc(N4CCOCC4)n3n2)c2cc(Cl)ccc2n1 [P33, (S)—N-(4-(2-(5-(azetidin-1-yl)-7-morpholinopyrazolo[1,5-a]-pyrimidin-2-yl)piperidin-1-yl)-6-chloroquinazolin-2-yl)methanesulfonamide]	4.2	7.88	–
CS(=O)(=O)Nc1nc(N2CCCC[C@@H]2c2cc3nc(N4CCC4)cc(N4CCOCC4)n3n2)c2cc(Cl)ccc2n1 [P34, (R)—N-(4-(2-(5-(azetidin-1-yl)-7-morpholinopyrazolo[1,5-a]-pyrimidin-2-yl)piperidin-1-yl)-6-chloroquinazolin-2-yl)methanesulfonamide]	4.3	–	631
Clc1cccc2ncnc(N3CCCCC3c3cc4nc(N5CCC5)cc(N5CCOCC5)n4n3)c12 (stereo not shown) [P35, 4-(5-(azetidin-1-yl)-2-(1-(5-chloroquinazolin-4-yl)piperidin-2-yl)-pyrazolo[1,5-a]pyrimidin-7-yl)morpholine]	4.4	–	63.1
CN(C)S(=O)(=O)NC(=O)c1nc(N2CCCCC2c2cc3nc(N4CCC4)cc(N4CCOCC4)n3n2)c2ccccc2n1 (stereo not shown) [P36, 4-(2-(5-(azetidin-1-yl)-7-morpholinopyrazolo[1,5-a]pyrimidin-2-yl)-piperidin-1-yl)-N—(N,N-dimethylsulfamoyl)quinazoline-2-carboxamide]	<4	–	501
Cc1nc(N2CCCCC2c2cc3nc(N4CC(O)C4)c(C)cn3n2)c2c(C)cccc2n1 (stereo not shown) [P37, 1-(2-(1-(2,5-dimethylquinazolin-4-yl)piperidin-2-yl)-6-methyl-pyrazolo[1,5-a]pyrimidin-5-yl)azetidin-3-ol]	4.3	–	316
Cc1cn2nc(C3CCCCN3c3nc(Cl)nc4cccc(C)c34)cc2nc1N1CC(O)C1 (stereo not shown) [P40, 1-(2-(1-(2-chloro-5-methylquinazolin-4-yl)piperidin-2-yl)-6-methylpyrazolo[1,5-a]pyrimidin-5-yl)azetidin-3-ol]	4.7	–	158
Cc1cn2nc(C3CCCCN3c3nc(NS(C)(=O)=O)nc4cccc(C)c34)cc2nc1N1CC(O)C1 (stereo not shown) [P41, N-(4-(2-(5-(3-hydroxyazetidin-1-yl)-6-methylpyrazolo[1,5-a]-pyrimidin-2-yl)piperidin-1-yl)-5-methylquinazolin-2-yl)methanesulfonamide]	<4	–	79.4
Cc1ccc2nc(C)nc(N3CCCCC3c3cc4nc(N5CC(O)C5)c(C)cn4n3)c2c1 (stereo not shown) [P42, 1-(2-(1-(2,6-dimethylquinazolin-4-yl)piperidin-2-yl)-6-methyl-pyrazolo[1,5-a]pyrimidin-5-yl)azetidin-3-ol]	<4.6	–	2510
Cc1ccc2nc(C)nc(N3CCCC[C@H]3c3cc4nc(N5CC(O)C5)c(C)cn4n3)c2c1 [P43, (S)-1-(2-(1-(2,6-dimethylquinazolin-4-yl)piperidin-2-yl)-6-methyl-pyrazolo[1,5-a]pyrimidin-5-yl)azetidin-3-ol]	4.2	–	15800
Cc1ccc2nc(C)nc(N3CCCC[C@@H]3c3cc4nc(N5CC(O)C5)c(C)cn4n3)c2c1 [P44, (R)-1-(2-(1-(2,6-dimethyl-quinazolin-4-yl)piperidin-2-yl)-6-methylpyrazolo[1,5-a]pyrimidin-5-yl)azetidin-3-ol]	4.2	–	794
Cc1cccc2nc(O)nc(N3CCCCC3c3cc4nc(N5CCC5)cc(N5CCOCC5)n4n3)c12 (stereo not shown) [P45, 4-(2-(5-(azetidin-1-yl)-7-morpholinopyrazolo[1,5-a]pyrimidin-2-yl)-piperidin-1-yl)-5-methylquinazolin-2-ol]	4.2	–	200
Cc1cccc2nc(C(N)=O)nc(N3CCCCC3c3cc4nc(N5CCC5)cc(N5CCOCC5)n4n3)c12 (stereo not shown) [P46, 4-(2-(5-(azetidin-1-yl)-7-morpholinopyrazolo[1,5-a]pyrimidin-2-yl)-piperidin-1-yl)-5-methylquinazoline-2-carboxamide]	4.3	–	316
Cc1c(C2CC2)nc2cc(C3CCCCN3c3ncnc4cccc(C)c34)nn2c1N1CCOCC1 (stereo not shown) [P47, 4-(5-cyclopropyl-6-methyl-2-(1-(5-methylquinazolin-4-yl)piperidin-2-yl)pyrazolo[1,5-a]pyrimidin-7-yl)morpholine]	4.6	–	501
Cc1ccc2ncnc(N3CCCC[C@@H]3c3cc4nc(N5CC[C@H](N)C5)ccn4n3)c2c1 [P50, (S)-1-(2-((R)-1-(6-methylquinazolin-4-yl)piperidin-2-yl)pyrazolo-[1,5-a]pyrimidin-5-yl)pyrrolidin-3-amine]	4.3	–	631
Cc1cccc2ncnc(N3CCCCC3c3cc4nc(N5CCC5)cc(N5CCN(C(=O)OC(C)(C)C)CC5)n4n3)c12 (stereo not shown) [P52, tert-butyl4-(5-(azetidin-1-yl)-2-(1-(5-methylquinazolin-4-yl)piperidin-2-yl)pyrazolo[1,5-a]pyrimidin-7-yl)piperazine-1-carboxylate]	4.7	–	79.4
Cc1cccc2ncnc(N3CCCCC3c3cc4nc(N5CCC5)cc(N5CCNCC5)n4n3)c12 (stereo not shown) [P53, 4-(2-(5-(azetidin-1-yl)-7-(piperazin-1-yl)pyrazolo[1,5-a]pyrimidin-2-yl)piperidin-1-yl)-5-methylquinazoline]	4.6	–	50.1
Cc1cccc2ncnc(N3CCCCC3c3cc4nc(N5CCC5)cc(N5CCN(C(=O)NC(C)C)CC5)n4n3)c12 (stereo not shown) [P54, 4-(5-(azetidin-1-yl)-2-(1-(5-methylquinazolin-4-yl)piperidin-2-yl)-pyrazolo[1,5-a]pyrimidin-7-yl)-N-isopropylpiperazine-1-carboxamide]	4.5	–	25.1
Cc1cccc2ncnc(N3CCCCC3c3cc4nc(N5CCC5)cc(N5CCN(S(C)(=O)=O)CC5)n4n3)c12 (stereo not shown) [P55, 4-(2-(5-(azetidin-1-yl)-7-(4-(methylsulfonyl)piperazin-1-yl)pyrazolo-[1,5-a]pyrimidin-2-yl)piperidin-1-yl)-5-methylquinazoline]	4.3	–	15.8
CSc1nc(N2CCCCC2c2cc3nc(N4CCC4)cc(N4CCOCC4)n3n2)c2cc(C)ccc2n1 (stereo not shown) [P57, 4-(5-(azetidin-1-yl)-2-(1-(6-methyl-2-(methylthio)quinazolin-4-yl)-piperidin-2-yl)pyrazolo[1,5-a]pyrimidin-7-yl)morpholine]	4.5	–	631
CCc1cccc2ncnc(N3CCCCC3c3cc4nc(N5CCC5)cc(N5CCOCC5)n4n3)c12 (stereo not shown) [P58, 4-(5-(azetidin-1-yl)-2-(1-(5-ethylquinazolin-4-yl)piperidin-2-yl)-pyrazolo[1,5-a]pyrimidin-7-yl)morpholine]	<4	–	501
Cc1cc(C)c2c(N3CCCCC3c3cc4nc(N5CCC5)cc(N5CCOCC5)n4n3)ncnc2c1 (stereo not shown) [P59, 4-(5-(azetidin-1-yl)-2-(1-(5,7-dimethylquinazolin-4-yl)piperidin-2-yl)-pyrazolo[1,5-a]pyrimidin-7-yl)morpholine]	4.3	–	398
Fc1cccc2ncnc(N3CCCCC3c3cc4nc(N5CCC5)cc(N5CCOCC5)n4n3)c12 (stereo not shown) [P60, 4-(5-(azetidin-1-yl)-2-(1-(5-fluoroquinazolin-4-yl)piperidin-2-yl)-pyrazolo[1,5-a]pyrimidin-7-yl)morpholine]	4.3	–	126
CCOc1cccc2ncnc(N3CCCCC3c3cc4nc(N5CCC5)cc(N5CCOCC5)n4n3)c12 (stereo not shown) [P61, 4-(5-(azetidin-1-yl)-2-(1-(5-ethoxyquinazolin-4-yl)piperidin-2-yl)-pyrazolo[1,5-a]pyrimidin-7-yl)morpholine]	<4	–	31.6
FC(F)(F)c1cccc2ncnc(N3CCCCC3c3cc4nc(N5CCC5)cc(N5CCOCC5)n4n3)c12 (stereo not shown) [P62, 4-(5-(azetidin-1-yl)-2-(1-(5-(trifluoromethyl)quinazolin-4-yl)piperidin-2-yl)pyrazolo[1,5-a]pyrimidin-7-yl)morpholine]	4.3	–	100
CCc1ccc2ncnc(N3CCCCC3c3cc4nc(N5CCC5)cc(N5CCOCC5)n4n3)c2c1C (stereo not shown) [P63, 4-(5-(azetidin-1-yl)-2-(1-(6-ethyl-5-methylquinazolin-4-yl)piperidin-2-yl)pyrazolo[1,5-a]pyrimidin-7-yl)morpholine]	4.4	–	398
Cc1ccc2ncnc(N3CCCCC3c3cc4nc(N5CCC5)cc(N5CCOCC5)n4n3)c2c1C (stereo not shown) [P64, 4-(5-(azetidin-1-yl)-2-(1-(5,6-dimethylquinazolin-4-yl)piperidin-2-yl)-pyrazolo[1,5-a]pyrimidin-7-yl)morpholine]	<4.6	–	15.8
Cc1nc2c(N3CCCCC3c3cc4nc(N5CCC5)cc(N5CCOCC5)n4n3)ncnc2o1 (stereo not shown) [P65, 7-(2-(5-(azetidin-1-yl)-7-morpholinopyrazolo[1,5-a]pyrimidin-2-yl)-piperidin-1-yl)-2-methyloxazolo[5,4-d]pyrimidine]	<4.6	–	15.8
COC(=O)c1nc(N2CCCCC2c2cc3nc(N4CCC4)cc(N4CCOCC4)n3n2)c2c(C)cccc2n1 (stereo not shown) [P67, methyl 4-(2-(5-(azetidin-1-yl)-7-morpholinopyrazolo[1,5-a]pyrimidin-2-yl)piperidin-1-yl)-5-methylquinazoline-2-carboxylate]	<4.3	–	126
Cc1cccc2nc(C(=O)O)nc(N3CCCCC3c3cc4nc(N5CCC5)cc(N5CCOCC5)n4n3)c12 (stereo not shown) [P68, 4-(2-(5-(azetidin-1-yl)-7-morpholinopyrazolo[1,5-a]pyrimidin-2-yl)-piperidin-1-yl)-5-methylquinazoline-2-carboxylic acid]	<4.6	–	316
